What was measured:
Type in all cases: in vivo
[1] = system: barnyardgrass (Echinochloa crus-galli); assay: Test C greenhouse herbicide test, pre- and postemergence
From the text: (§1) Seeds of plant species selected from blackgrass (Alopecurus myosuroides), ryegrass, Italian (Italian ryegrass, Lolium multiflorum), wheat (winter wheat, Triticum aestivum), galium (catchweed bedstraw, Galium aparine), corn (Zea mays), large crabgrass, large (large crabgrass, Digitaria sanguinalis), foxtail, giant (giant foxtail, Setaria faberii), johnsongrass (Sorghum halepense), lambsquarters (Chenopodium album), morningglory (Ipomoea coccinea), nutsedge, yellow (yellow nutsedge, Cyperus esculentus), pigweed (Amaranthus retroflexus), ragweed (common ragweed, Ambrosia elatior), soybean (Glycine max), barnyardgrass (Echinochloa crus-galli), oilseed rape (Brassica napus), waterhemp (common waterhemp, Amaranthus rudis), and velvetleaf (Abutilon theophrasti) were planted into a blend of loam soil and sand and treated preemergence with test chemicals formulated in a non-phytotoxic solvent mixture which included a surfactant.
(§2) At the same time, plants selected from these crop and weed species and also chickweed (common chickweed, Stellaria media), kochia (Kochia scoparia), and oat, wild (wild oat, Avena fatua), were planted in pots containing Redi-Earth® planting medium (Scotts Company, 14111 Scottslawn Road, Marysville, Ohio 43041) comprising spaghnum peat moss, vermiculite, wetting agent and starter nutrients and treated with postemergence applications of test chemicals formulated in the same manner. Plants ranged in height from 2 to 18 cm (1- to 4-leaf stage) for postemergence treatments. Treated plants and controls were maintained in a greenhouse for 13 to 15 d, after which time all species were compared to controls and visually evaluated. Plant response ratings, summarized in Table C, are based on a scale of 0 to 100 where 0 is no effect and 100 is complete control. A dash (-) response means no test result.

[2] = system: blackgrass (Alopecurus myosuroides); assay: as above
From the text: as §1, §2

[3] = system: galium (catchweed bedstraw, Galium aparine); assay: as above
From the text: as §1, §2

[4] = system: nutsedge, yellow (yellow nutsedge, Cyperus esculentus); assay: as above
From the text: as §1, §2

[5] = system: pigweed (Amaranthus retroflexus); assay: as above
From the text: as §1, §2

[6] = system: ragweed (common ragweed, Ambrosia elatior); assay: as above
From the text: as §1, §2

[7] = system: ryegrass, Italian (Italian ryegrass, Lolium multiflorum); assay: as above
From the text: as §1, §2

soybean (Glycine max) = assay: as above
From the text: as §1, §2

[8] = system: velvetleaf (Abutilon theophrasti); assay: as above
From the text: as §1, §2

[9] = system: chickweed (common chickweed, Stellaria media); assay: Test C greenhouse herbicide test, postemergence
Outline: (§3)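 Test chemicals were applied postemergence to greenhouse plants at the 1- to 4-leaf stage (2–18 cm tall) growing in peat/vermiculite medium. After 13–15 d, injury was rated visually against untreated controls on a 0–100 scale (0 = no effect, 100 = complete control).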

kochia (Kochia scoparia) = assay: Test C greenhouse herbicide test, postemergence
Outline: as §3

[10] = system: oat, wild (wild oat, Avena fatua); assay: Test C greenhouse herbicide test, postemergence
Outline: as §3

[11] = Postemergence, 31 g ai/ha, 0 to 100 scale (0 no effect, 100 complete control)
[12] = Postemergence, 125 g ai/ha, scale 0 to 100, 0 is no effect, 100 is complete control
[13] = Postemergence, 250 g ai/ha, scale 0 to 100, 0 no effect, 100 complete control, 13 to 15 d
[14] = Preemergence, 31 g ai/ha, scale 0 to 100, 0 is no effect, 100 is complete control
[15] = Preemergence, 62 g ai/ha, scale 0 to 100, 0 is no effect, 100 is complete control
[16] = Preemergence, 125 g ai/ha, scale 0 to 100, 0 is no effect, 100 is complete control
[17] = Preemergence, 250 g ai/ha, scale 0 to 100, 0 no effect, 100 complete control
[18] = postemergence, 62 g ai/ha, scale 0 to 100, 0 no effect, 100 complete control

SMILES: Cc1cc(C)c2sc(C)c(-c3c(O)c(C)nn(C)c3=O)c2c1 [Compound 2, 5-hydroxy-2,6-dimethyl-4-(2,5,7-trimethylbenzo[b]thien-3-yl)-3(2H)-pyridazinone]
- Barnyardgrass plant response rating [1, 11]: 10
- Plant response rating, Barnyardgrass [1, 12]: 15
- Plant response rating, Barnyardgrass [1, 13]: 20
- Plant response rating, Barnyardgrass [1, 14]: 35
- Plant response rating, Barnyardgrass [1, 15]: 70
- Plant response rating, Barnyardgrass [1, 16]: 95
- Barnyardgrass plant response rating [1, 17]: 98
- Barnyardgrass plant response rating [1, 18]: 10
- Blackgrass plant response rating [2, 11]: 45
- Plant response rating, Blackgrass [2, 12]: 85
- Plant response rating, Blackgrass [2, 13]: 80
- Plant response rating, Blackgrass [2, 14]: 85
- Plant response rating, Blackgrass [2, 15]: 90
- Plant response rating, Blackgrass [2, 16]: 95
- Blackgrass plant response rating [2, 17]: 95
- Blackgrass plant response rating [2, 18]: 65
- Galium plant response rating [3, 11]: 95
- Plant response rating, Galium [3, 12]: 98
- Plant response rating, Galium [3, 13]: 98
- Plant response rating, Galium [3, 14]: 95
- Plant response rating, Galium [3, 15]: 100
- Plant response rating, Galium [3, 16]: 100
- Galium plant response rating [3, 17]: 100
- Galium plant response rating [3, 18]: 95
- Nutsedge, Yellow plant response rating [4, 11]: 80
- Plant response rating, Nutsedge, Yellow [4, 12]: 98
- Plant response rating, Nutsedge, Yellow [4, 13]: 98
- Plant response rating, Nutsedge, Yellow [4, 14]: 30
- Plant response rating, Nutsedge, Yellow [4, 15]: 45
- Plant response rating, Nutsedge, Yellow [4, 16]: 70
- Nutsedge, Yellow plant response rating [4, 17]: 95
- Nutsedge, Yellow plant response rating [4, 18]: 95
- Pigweed plant response rating [5, 11]: 80
- Plant response rating, Pigweed [5, 12]: 90
- Plant response rating, Pigweed [5, 13]: 98
- Plant response rating, Pigweed [5, 14]: 100
- Plant response rating, Pigweed [5, 15]: 100
- Plant response rating, Pigweed [5, 16]: 100
- Pigweed plant response rating [5, 17]: 100
- Pigweed plant response rating [5, 18]: 60
- Ragweed plant response rating [6, 11]: 80
- Plant response rating, Ragweed [6, 12]: 95
- Plant response rating, Ragweed [6, 13]: 98
- Plant response rating, Ragweed [6, 14]: 65
- Plant response rating, Ragweed [6, 15]: 100
- Plant response rating, Ragweed [6, 16]: 100
- Ragweed plant response rating [6, 17]: 98
- Ragweed plant response rating [6, 18]: 80
- Ryegrass, Italian plant response rating [7, 11]: 60
- Plant response rating, Ryegrass, Italian [7, 12]: 85
- Plant response rating, Ryegrass, Italian [7, 13]: 90
- Plant response rating, Ryegrass, Italian [7, 14]: 95
- Plant response rating, Ryegrass, Italian [7, 15]: 98
- Plant response rating, Ryegrass, Italian [7, 16]: 98
- Ryegrass, Italian plant response rating [7, 17]: 98
- Ryegrass, Italian plant response rating [7, 18]: 75
- Soybean plant response rating (soybean (Glycine max); [11]): 0
- Plant response rating, Soybean (soybean (Glycine max); [12]): 50
- Plant response rating, Soybean (soybean (Glycine max); [13]): 5
- Plant response rating, Soybean (soybean (Glycine max); [15]): 0
- Plant response rating, Soybean (soybean (Glycine max); [16]): 0
- Soybean plant response rating (soybean (Glycine max); [17]): 0
- Soybean plant response rating (soybean (Glycine max); [18]): 0
- Velvetleaf plant response rating [8, 11]: 100
- Plant response rating, Velvetleaf [8, 12]: 100
- Plant response rating, Velvetleaf [8, 13]: 100
- Plant response rating, Velvetleaf [8, 15]: 95
- Plant response rating, Velvetleaf [8, 16]: 100
- Velvetleaf plant response rating [8, 17]: 100
- Velvetleaf plant response rating [8, 18]: 100
- Chickweed plant response rating [9, 11]: 95
- Plant response rating, Chickweed [9, 12]: 95
- Plant response rating, Chickweed [9, 13]: 98
- Chickweed plant response rating [9, 18]: 95
- Kochia plant response rating (kochia (Kochia scoparia); [11]): 50
- Plant response rating, Kochia (kochia (Kochia scoparia); [12]): 65
- Plant response rating, Kochia (kochia (Kochia scoparia); [13]): 75
- Kochia plant response rating (kochia (Kochia scoparia); [18]): 55
- Oat, Wild plant response rating [10, 11]: 75
- Plant response rating, Oat, Wild [10, 12]: 90
- Plant response rating, Oat, Wild [10, 13]: 85
- Oat, Wild plant response rating [10, 18]: 80

From patent publication US10597388B2, “Pyridazinone herbicides” (FMC CORPORATION, priority 2014, dated 2020)
